Experimental findings from ChEMBL document CHEMBL3608248, “Dimeric Macrocyclic Antagonists of Inhibitor of Apoptosis Proteins for the Treatment of Cancer” (ACS Med Chem Lett, 2015) are described below.

A short description of data set [1]: cells. Conditions: Homo sapiens, A875, 72 h.
Data set [2] in a line: animal or person. Conditions: Homo sapiens, A875, ip, read-out: TGI.
In data set [3] the test system is A875. Conditions: Homo sapiens, 50 mg/kg.
Data set [4] is described as follows: physchem. Conditions: buffer, pH 7.4.
The nature of data set [5]: in vitro. Conditions: mouse, plasma.
Data set [6] in a line: in vivo. Conditions: dog, iv, 0.3 mg/kg.
A short description of data set [7]: animal or person. Conditions: Homo sapiens, A875, ip, 72 h, read-out: TGI.
The test system of data set [8] is HCT-116/VM46. Kind of data set: cells. Conditions: Homo sapiens.
Data set [9] is described as follows: in vivo. Conditions: rat, iv, 1 mg/kg.
Data set [10] is described as follows: in vivo. Conditions: rat, iv, 1 mg/kg. The source holds these as a separate data set.
Data set [11] in a line: animal or person. Conditions: Homo sapiens, A875, ip, 72 h, read-out: TGI. This is another data set of the same source.
Data set [12] can be described thus: in vitro. Conditions: mouse, liver microsomes.
The nature of data set [13]: in vivo. Conditions: Balb/C, mouse, iv, 1 mg/kg.
Data set [14] can be described thus: in vitro. Conditions: rat, liver microsomes.
A short description of data set [15]: in vivo. Conditions: dog, iv, 0.3 mg/kg. The source holds these as a separate data set.
Data set [16] can be described thus: in vitro. Conditions: dog, liver microsomes.
Data set [17] is described as follows: in vitro. Conditions: dog, plasma.
Data set [18] can be described thus: in vivo. Conditions: Balb/C, mouse, iv, 1 mg/kg. This is another data set of the same source.
The nature of data set [19]: in vitro. Conditions: rat, plasma.
A short description of data set [20]: in vivo. Conditions: Balb/C, mouse, iv, 1 mg/kg. The source holds these as a separate data set.
Data set [21] deals with HCT-116. As to the kind of experiment: cells. Conditions: Homo sapiens.
In data set [22] the target is hERG (Homo sapiens, UniProt Q12809). As to the kind of experiment: in vitro.
Sequence of hERG (Q12809 whole entry): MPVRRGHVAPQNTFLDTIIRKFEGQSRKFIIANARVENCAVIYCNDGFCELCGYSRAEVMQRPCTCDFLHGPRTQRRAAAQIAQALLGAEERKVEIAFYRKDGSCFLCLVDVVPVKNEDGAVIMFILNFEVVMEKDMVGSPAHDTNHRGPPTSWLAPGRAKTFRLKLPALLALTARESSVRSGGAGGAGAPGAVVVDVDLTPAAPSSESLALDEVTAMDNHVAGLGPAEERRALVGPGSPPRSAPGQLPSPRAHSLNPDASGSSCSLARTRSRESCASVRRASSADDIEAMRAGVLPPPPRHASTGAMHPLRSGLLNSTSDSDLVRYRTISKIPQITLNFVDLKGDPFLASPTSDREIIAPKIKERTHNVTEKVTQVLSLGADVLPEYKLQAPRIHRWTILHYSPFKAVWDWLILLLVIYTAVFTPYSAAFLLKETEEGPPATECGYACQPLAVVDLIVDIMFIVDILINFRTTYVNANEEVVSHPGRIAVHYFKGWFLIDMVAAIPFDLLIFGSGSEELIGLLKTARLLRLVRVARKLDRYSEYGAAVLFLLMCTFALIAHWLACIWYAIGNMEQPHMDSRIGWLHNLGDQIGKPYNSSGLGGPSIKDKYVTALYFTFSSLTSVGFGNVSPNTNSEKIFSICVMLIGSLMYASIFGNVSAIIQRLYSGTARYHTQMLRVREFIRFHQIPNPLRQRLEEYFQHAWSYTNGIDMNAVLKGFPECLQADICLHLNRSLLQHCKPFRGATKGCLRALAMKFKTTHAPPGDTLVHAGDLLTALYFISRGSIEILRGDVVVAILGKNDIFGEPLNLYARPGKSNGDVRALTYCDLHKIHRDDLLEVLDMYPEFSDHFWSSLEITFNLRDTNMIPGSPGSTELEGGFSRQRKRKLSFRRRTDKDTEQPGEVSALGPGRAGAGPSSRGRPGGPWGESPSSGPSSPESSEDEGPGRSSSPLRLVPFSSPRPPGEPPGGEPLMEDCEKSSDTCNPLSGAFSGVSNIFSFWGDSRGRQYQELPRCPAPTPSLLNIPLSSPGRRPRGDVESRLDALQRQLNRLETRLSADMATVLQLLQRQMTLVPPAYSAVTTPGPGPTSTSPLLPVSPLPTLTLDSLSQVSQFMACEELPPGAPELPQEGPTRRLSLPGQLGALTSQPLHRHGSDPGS
Data set [23] can be described thus: in vivo. Conditions: dog, iv, 0.3 mg/kg. This is another data set of the same source.
Data set [24] can be described thus: in vitro. Conditions: human, liver microsomes.
Data set [25] is described as follows: in vivo. Conditions: rat, iv, 1 mg/kg. This is another data set of the same source.
A short description of data set [26]: in vitro. Conditions: human, plasma.
A short description of data set [27]: in vivo. Conditions: Balb/C, mouse, iv, 1 mg/kg. This is another data set of the same source.
For data set [28], the species on record is Mus musculus. Conditions: in vivo, iv, 1 mg/kg, 7 h.

Values after ≈ are worked out from the molar mass of the structure shown. Active and inactive are the calls of the source. The rule behind the calls is not given here. Where only a bound is given, the exact number is not on record here.

As to `CN[C@@H](C)C(=O)N[C@H](C(=O)N1C[C@H]2C/C=C/COc3ccc(cc3)C[C@@H](C(=O)O)NC(=O)[C@H](Cc3ccc4ccccc4c3)NC(=O)[C@@H]3C[C@@H](CN3C(=O)[C@@H](NC(=O)[C@H](C)NC)C(C)(C)C)n3cc(nn3)COc3ccc(cc3)C[C@@H](NS(=O)(=O)C3CC3)NC(=O)[C@H](Cc3ccc4ccccc4c3)NC(=O)[C@@H]1C2)C(C)(C)C`, in data set [1], the IC50 turned out to be 0.051 µM.
On the same count and under the same terms, in the case of `CN[C@@H](C)C(=O)N[C@H](C(=O)N1C[C@H]2C/C=C/COc3ccc(cc3)C[C@@H](C(=O)NS(=O)(=O)C3CC3)NC(=O)[C@H](Cc3ccc4ccccc4c3)NC(=O)[C@@H]3C[C@H](C/C=C/COc4ccc(cc4)C[C@@H](C(=O)O)NC(=O)[C@H](Cc4ccc5ccccc5c4)NC(=O)[C@@H]1C2)CN3C(=O)[C@@H](NC(=O)[C@H](C)NC)C(C)(C)C)C(C)(C)C` it was 0.023 µM; in that of `CN[C@@H](C)C(=O)N[C@H](C(=O)N1C[C@@H]2C[C@H]1C(=O)N[C@@H](Cc1ccc3ccccc3c1)C(=O)N[C@H](C(=O)O)Cc1ccc(cc1)OCc1cn(nn1)[C@H]1C[C@@H](C(=O)N[C@@H](Cc3ccc4ccccc4c3)C(=O)N[C@H](C(=O)OC)Cc3ccc(cc3)OCc3cn2nn3)N(C(=O)[C@@H](NC(=O)[C@H](C)NC)C(C)(C)C)C1)C(C)(C)C`, 0.31 µM.
Take `CN[C@@H](C)C(=O)N[C@H](C(=O)N1C[C@H]2CCCCOc3ccc(cc3)C[C@@H](C(=O)O)NC(=O)[C@H](Cc3ccc4ccccc4c3)NC(=O)[C@@H]3C[C@@H](CN3C(=O)[C@@H](NC(=O)[C@H](C)NC)C(C)(C)C)n3cc(nn3)COc3ccc(cc3)C[C@@H](NS(=O)(=O)C3CC3)NC(=O)[C@H](Cc3ccc4ccccc4c3)NC(=O)[C@@H]1C2)C(C)(C)C`: the inhibition in vivo at 5 mg/kg is 80% in data set [2] and over 100% in data set [7]. Besides, the TGI entry in [3] was “Active”. Further, in [4], the concentration in solution (solubility) came to 0.05 mg/mL (≈ 32.1 µM). Besides, the unbound share (fraction unbound) is 0.058 in data set [5], 0.024 in [17], 0.019 in data set [19] and 0.075 in data set [26]. In addition, the exposure AUC(0-t) at 7 h in data set [6] amounted to 8.43 µM·h; in [18], 4.49 µM·h; in data set [25] it was 1.71 µM·h. Besides, the values for the IC50 in [8], in data set [1] and in [21] were 0.011 µM, 0.019 µM and 0.092 µM, respectively. The half-life in data set [9] is 1 h; in [12], over 2 h; in data set [14], 1.4 h; in data set [15] it was 4.7 h; in data set [16], over 2 h; in [20] it was 1.7 h. The same compound returned a half-life in data set [24] of over 2 h. Also, the clearance in data set [10] was determined as 0.372 L/h/kg; in [13], 0.126 L/h/kg; in data set [23], 0.024 L/h/kg. Moreover, the inhibition in vivo at 2 mg/kg in [11] stood at 67%. In data set [22], this compound had an inhibition at 30 um of 9%.
In turn, `CN[C@@H](C)C(=O)N[C@H](C(=O)N1C[C@H]2CCCCOc3ccc(cc3)C[C@@H](C(=O)NS(=O)(=O)C3CC3)NC(=O)[C@H](Cc3ccc4ccccc4c3)NC(=O)[C@@H]3C[C@H](CCCCOc4ccc(cc4)C[C@@H](C(=O)O)NC(=O)[C@H](Cc4ccc5ccccc5c4)NC(=O)[C@@H]1C2)CN3C(=O)[C@@H](NC(=O)[C@H](C)NC)C(C)(C)C)C(C)(C)C` came in with a solubility in [4] of under 0.01 mg/mL. In addition, in data set [1], the half-inhibitory concentration (IC50) worked out at 0.015 µM.
`CN[C@@H](C)C(=O)N[C@H](C(=O)N1C[C@@H]2C[C@H]1C(=O)N[C@@H](Cc1ccc3ccccc3c1)C(=O)N[C@H](C(=O)OC)Cc1ccc(cc1)OCc1cn(nn1)[C@H]1C[C@@H](C(=O)N[C@@H](Cc3ccc4ccccc4c3)C(=O)N[C@H](C(=O)OC)Cc3ccc(cc3)OCc3cn2nn3)N(C(=O)[C@@H](NC(=O)[C@H](C)NC)C(C)(C)C)C1)C(C)(C)C`: the IC50 in data set [1] was determined as 0.69 µM.
As to `CN[C@@H](C)C(=O)N[C@H](C(=O)N1C[C@@H]2C[C@H]1C(=O)N[C@@H](Cc1ccc3ccccc3c1)C(=O)N[C@H](NS(=O)(=O)C1CC1)Cc1ccc(cc1)OCc1cn(nn1)[C@H]1C[C@@H](C(=O)N[C@@H](Cc3ccc4ccccc4c3)C(=O)N[C@H](C(=O)O)Cc3ccc(cc3)OCc3cn2nn3)N(C(=O)[C@@H](NC(=O)[C@H](C)NC)C(C)(C)C)C1)C(C)(C)C`, the Vd in [27] was 0.1 L/kg. The compound also came in with a clearance in [13] of 0.09 L/h/kg. Further, in data set [1], half-maximal inhibition (IC50) was put at 0.039 µM. The AUC(0-t) at 7 h in data set [18] was determined as 5.85 µM·h. For the same compound, in [20], the half-life was 1 h.
Consider `CN[C@@H](C)C(=O)N[C@H](C(=O)N1C[C@@H]2C[C@H]1C(=O)N[C@@H](Cc1ccc3ccccc3c1)C(=O)N[C@H](C(=O)O)Cc1ccc(cc1)OCc1cn(nn1)[C@H]1C[C@@H](C(=O)N[C@@H](Cc3ccc4ccccc4c3)C(=O)N[C@H](c3nnn[nH]3)Cc3ccc(cc3)OCc3cn2nn3)N(C(=O)[C@@H](NC(=O)[C@H](C)NC)C(C)(C)C)C1)C(C)(C)C`, for which 0.083 µM corresponded to half-maximal inhibition in [1] (IC50). That is a double-digit nanomolar value.
`CN[C@@H](C)C(=O)N[C@H](C(=O)N1C[C@@H]2C[C@H]1C(=O)N[C@@H](Cc1ccc3ccccc3c1)C(=O)N[C@H](C(=O)O)Cc1ccc(cc1)OCc1cn(nn1)[C@H]1C[C@@H](C(=O)N[C@@H](Cc3ccc4ccccc4c3)C(=O)N[C@H](C(=O)O)Cc3ccc(cc3)OCc3cn2nn3)N(C(=O)[C@@H](NC(=O)[C@H](C)NC)C(C)(C)C)C1)C(C)(C)C` displayed a solubility in data set [4] of 0.13 mg/mL (≈ 86.3 µM). Besides, the volume of distribution (Vd) in data set [27] stood at 0.3 L/kg. This compound returned an exposure (AUC) in data set [28] of 1.55 µM·h. Besides, in data set [1], the half-inhibitory concentration (IC50) is 0.073 µM.
Consider `C=CCOc1ccc(C[C@H](NC(=O)[C@H](Cc2ccc3ccccc3c2)NC(=O)[C@@H]2C[C@H](n3cc(COc4ccc(C[C@H](NC(=O)[C@H](Cc5ccc6ccccc6c5)NC(=O)[C@@H]5C[C@H](CC=C)CN5C(=O)[C@@H](NC(=O)[C@H](C)NC)C(C)(C)C)NS(=O)(=O)C5CC5)cc4)nn3)CN2C(=O)[C@@H](NC(=O)[C@H](C)NC)C(C)(C)C)C(=O)O)cc1`, for which the IC50 in data set [1] is over 1 µM.
`CN[C@@H](C)C(=O)N[C@H](C(=O)N1C[C@@H]2C[C@H]1C(=O)N[C@@H](Cc1ccc3ccccc3c1)C(=O)N[C@H](NS(=O)(=O)C1CC1)Cc1ccc(cc1)OCc1cn(nn1)[C@H]1C[C@@H](C(=O)N[C@@H](Cc3ccc4ccccc4c3)C(=O)N[C@H](NS(=O)(=O)C3CC3)Cc3ccc(cc3)OCc3cn2nn3)N(C(=O)[C@@H](NC(=O)[C@H](C)NC)C(C)(C)C)C1)C(C)(C)C` returned a volume of distribution (Vd) in [27] of 0.3 L/kg. The compound further displayed a clearance in data set [13] of 0.216 L/h/kg. In data set [1], this compound yielded an IC50 of 0.079 µM. The compound further returned an AUC(0-t) at 7 h in data set [18] of 2.35 µM·h. This compound showed a half-life in data set [20] of 0.9 h.
